# Patent US20120202258A1, “LIGE-TYPE TRANSFORMANTS FOR BIOCONVERSION OF LIGNIN-DERIVED COMPOUNDS” (priority 2010, published 2012)
# Tested on: not listed separately
# Assay: in vitro beta-etherase biochemical assay on fluorescent substrate MUAV (4MU fluorescence), clarified E. coli cell extracts
# Conditions: 0.1 mM MUAV substrate
# Text: The model substrate synthesis 150 for use in the biochemical screening for selective activity can be outsourced through a contract research organization (CRO). The enzyme discovery effort can initially be focused on identifying potential beta-etherase candidate genes identified through bioinformatic methods. […] The fluorescent substrate α-O-(β-methylumbelliferyl) acetovanillone (MUAV), for example, can be used in in vitro assays to identify beta-etherase function (Acme Biosciences, Mt. View, Calif.). The formation of 4 methylumbelliferone (4MU) upon hydrolysis of the aryl ether bond can be monitored by fluorescence, for example, at λex=365 nm and λem=450 nm (or 460 nm).
# The enzyme screening 155 is done to identify novel etherases 160. […] Expression of the beta-etherase genes can be done in 5 ml or 25 ml samples of the recombinant E. coli strains in LB medium using induction with IPTG. Following induction, and cell harvest, cell pellets can be be lysed using the BPER (Invitrogen) cell lysis system. […] The formation of 4 methylumbelliferone (4MU) upon hydrolysis of the aryl ether bond in MUAV can be monitored by fluorescence at λex=365 nm and λem=460 nm, and can provide quantitative measurement of beta-etherase function. Cell extracts of E. coli transformed with the S. paucimobilis ligE and ligF genes can be the assay positive controls. Test or unknown samples can include, for example, E. coli strains expressing putative beta-etherase genes from N. aromaticovorans.
# This example describes a method for gene expression in E. coli, as well as beta-etherase biochemical assays. Expression of known and putative beta-etherase genes was performed using 5 ml cultures of the recombinant E. coli strains described herein in Luria Broth medium by induction of gene expression using isopropylthiogalactoside (IPTG) to a final concentration of 0.1 mM. Following induction, and cell harvest, the cells were disrupted using either sonication or the BPER (Invitrogen) cell lysis system.
# In vitro reactions were performed in a total volume of 200 ul and contained: 25 mM TrisHCl pH 7.5; 0.5 mM dithiothreitol; 1 mM glutathione; 0.05 mM or 0.1 mM MUAV; 10 ul of clarified cell extract used to initiate the reactions. Following incubation for 2.5 hours at room temperature, a 50 ul sample of the reactions was terminated using 150 uL of 300 mM glycine/NaOH buffer pH 9. The formation of 4 methylumbelliferone (4MU) upon hydrolysis of the aryl ether bond was monitored by the increase in fluorescence at λex=360 nm and λem=450 nm using a Spectramax UV/visible/fluorescent spectrophotometer.
# The total protein concentrations of the cell lysates were determined using the BCA reagent system for protein quantification (Pierce).
row,Molecule,fold more efficient than S. paucimobilis ligE beta-etherase enzyme
1,"ligE1: N. aromaticivorans putative beta-etherase polypeptide, glutathione S-transferase-like protein, expressed in E. coli (protein) MAANNTITFYDLALSTGATISPFVWATKYALKHKGFDLDVVPGGFTGILERTGGKTERLPAIVDDGEFVLDSWGIVEYLDAKYPDRPVLIPHESVAATLKALDNWFWNAAVGPWMFCFCQDYRDLSLPQDHEYVTHSREKMLGRKLEEVQAGREERLPKISAALEPLRAALAQHQWLGGSSPNYADYRIMGGILFTASVCKTPVLANDDPLRDWIERCLDLYGGLGRHPGLFPLFGLEQREGDPDLFNRAAGQGGIYKRNTGPESTRAETQRITEGMKK",approximately 75 fold

# Same assay, conditions: MUAV substrate; result in words
row,Molecule,beta-etherase activity
1,ABD27309.1: N. aromaticivorans putative beta-etherase polypeptide (protein) MDEVSLYHWEPNANSGKPMLALMEKGVPFSSHYIDMLQFDQHKPEYLAINPQGTIPAMTHNGQVLTESTAIMEYVNDRFDGPDLMPADAQDRWRVRWWMKFMDQWLGPSFSMIGWSVFVGPMVRQRDPAELAAAIDRIPLPERRTAWRKAINGDFSESEMAESRRRVGLGIAKLEEELGKRPYVGSNQYSLADINIFNSTYSLPISQPDLAGKDRTPNIMRWLKRVYTREAVKKTWAMGKTDLAHRYGLIMAEIEG,beta-etherase activity
2,"ligE1: N. aromaticivorans putative beta-etherase polypeptide, glutathione S-transferase-like protein, expressed in E. coli (protein) MAANNTITFYDLALSTGATISPFVWATKYALKHKGFDLDVVPGGFTGILERTGGKTERLPAIVDDGEFVLDSWGIVEYLDAKYPDRPVLIPHESVAATLKALDNWFWNAAVGPWMFCFCQDYRDLSLPQDHEYVTHSREKMLGRKLEEVQAGREERLPKISAALEPLRAALAQHQWLGGSSPNYADYRIMGGILFTASVCKTPVLANDDPLRDWIERCLDLYGGLGRHPGLFPLFGLEQREGDPDLFNRAAGQGGIYKRNTGPESTRAETQRITEGMKK",beta-etherase activity
3,"LigF2: N. aromaticivorans putative beta-etherase polypeptide, glutathione S-transferase-like protein (protein) MALKYYHAEPLANSLKSMVPLKEKGLAYESIYVDLHKFEQHQPWFTAINPEGQVPVLDHDGTIITHTTVINEYLEDAFPDAQPADAPLRPRDPVGAARMRYWNKFIDEHVMNYVSMHGWHRMVGVIARNIASGDFEKLLESIPLPDQRKKWATARSGFSEADLANATAKIEYALDKVEKQLGETKWLAGDTYTLADINFYSHCGAMVERMFPEMEVARRAPRLCEWRDRVAARPAVAEALKSEDRTAPGLRVWSGEVR",beta-etherase activity
4,ABD26530.1: N. aromaticivorans putative beta-etherase polypeptide (protein) MVIPLGEDNTIMLKLYSFGPAANSMKPLLTVFEKGLDVEKHRLDPAKFEHHTDWFKAINPRGQVPALVDGDKVVTESTVICEYLEDEYPTEVALRPADSFGKAQMRIWTKWVDEYFCWCVSTIGWHRYVGNMVKSLSDAEFEEKVKAIPVIEQQVKWRRAREGFPQDMLDEEMRKIAYSVRKLDDHLADHEWLVPGQYTLADICNFAIANGMQFGFAELVNKQDTPHLVRWIEQINERPAVKQMFAQVELEKLGPRE,beta-etherase activity

# Tested on: Escherichia coli
# Assay: not given
# Conditions: demonstrated; result in words; cited from earlier work
row,Molecule,antibacterial activity against Escherichia coli
1,"O=Cc1ccc(O)c(O)c1O [2,3,4-trihydroxybenzaldehyde]",antibacterial activity
2,"O=Cc1cccc(O)c1O [2,3-dihydroxybenzaldehyde]",antibacterial activity
3,"O=Cc1c(O)cc(O)cc1O [2,4,6-trihydroxybenzaldehyde]",antibacterial activity
4,"O=Cc1ccc(O)cc1O [2,4-dihydroxybenzaldehyde]",antibacterial activity
5,"O=Cc1cc(O)ccc1O [2,5-dihydroxybenzaldehyde]",antibacterial activity
6,COc1cccc(C=O)c1O [2-hydroxy-3-methoxybenzaldehyde],antibacterial activity
7,COc1ccc(O)c(C=O)c1 [2-hydroxy-5-methoxybenzaldehyde],antibacterial activity
8,O=Cc1ccccc1O [2-hydroxybenzaldehyde],antibacterial activity
9,"COc1cc(O)cc(OC)c1C=O [4-hydroxy-2,6-dimethoxybenzaldehyde]",antibacterial activity

# Same assay, conditions: known; result in words; cited from earlier work
row,Molecule,antimicrobial activity against Escherichia coli
1,O=Cc1ccc(O)cc1 [4-hydroxybenzaldehyde],antimicrobial activity
2,O=Cc1ccc(CO)o1 [5-hydroxymethylfurfural],antimicrobial activity
3,O=Cc1ccco1 [furfural],antimicrobial activity
4,COc1cc(C=O)cc(OC)c1O [syringaldehyde],antimicrobial activity
5,COc1cc(C=O)ccc1O [vanillin],antimicrobial activity

# Tested on: Saccharomyces cerevisiae
# Assay: not given
# Conditions: result in words; cited from earlier work
row,Molecule,antifungal activities against the yeast Saccharomyces cerevisiae
1,COc1ccc(C=O)cc1OC [Veratraldehyde],significant antifungal activities
2,O=C(O)C=Cc1ccccc1 [cinnamic acid],significant antifungal activities
3,O=C(O)/C=C/c1cccc(O)c1 [m-coumaric acid],significant antifungal activities
4,O=C(O)/C=C/c1ccccc1O [o-coumaric acid],significant antifungal activities
5,O=C(O)/C=C/c1ccc(O)cc1 [p-coumaric acid],significant antifungal activities
6,COc1cc(C(=O)O)ccc1O [vanillic acid],significant antifungal activities
7,COc1cc(CCC(C)=O)ccc1O [vanillylacetone],significant antifungal activities

# Tested on: not given
# Assay: not given
# Conditions: FIG. 2B, S. paucimobilis LigDFEG gene cluster; result in words; cited from earlier work
row,Molecule,enzyme activity of gene product
1,LigD: S. paucimobilis C alpha-dehydrogenase gene product [reference compound],Cα-dehydrogenase activity
2,"ligE: S. paucimobilis beta-etherase, positive control polypeptide (protein) MARNNTITLYDLQLESGCTISPYVWRTKYALKHKGFDIDIVPGGFTGILERTGGRSERVPVIVDDGEWVLDSWVIAEYLDEKYPDRPMLFEGPTQKNLMKFLDNWLWSTAVGPWFRCYILDYHDLSLPQDRDYVRWSREQWFLGGQRLEDVQAGREDRLPLVPPTLEPFRRILAETKWLGGDQPNFADYSALAVFLWTASVARTPPLTEDDPLRDWLDRGFDLFDGLGRHPGMNPLFGLKLREGDPEPFVRQTGPAGAGGQALNKGPQTTKMPPRVAEKAD",β-etherase activity
3,LigG: S. paucimobilis glutathione-eliminating glutathione S transferase gene product (protein) MSGASARSLGKGSAPPGPVPEGQIRVYSMRFCPFAQRTLMVLKAKGIRHEIININLKNKPEWFFEKNPFGLVPVLENTQGHLITESVITCEYLDEAYPEKKLFPDDPYEKACQKMTFELFSKVPSLVTSFIRAKRKEDHPGIKEELKKEFSKLEEAMANKRTAFFGGNSLSMIDYLIWPWFQRLEALELNECIDHTPKLKLWMATMQEDPVASSHFIDAKTYRDYLSLYLQDSPEACDYGL,glutathione lyase activity
4,"LigF: S. paucimobilis beta-etherase, positive control polypeptide (protein) MTLKLYSFGPGANSLKPLATLYEKGLEFEQVFVDPSKFEQHSDWFKKINPRGQVPALWHDGKVVTESTVICEYLEDVFPESGNSLRPADPFKRAEMRVWTKWVDEYFCWCVSTIGWAFGIKAIAQKMSDEEFEEHINKNVPIPEQQLKWRRARNGFPQEMLDEEFRKVGVSVARLEETLSKQDYLVDTGYSLADICNFAIANGLQRPGGFFGDYVNQEKTPGLCAWLDRINARPAIKEMFEKSKREDLLKRQNEKVA",β-etherase activity
